This note sets out measurements from ChEMBL document CHEMBL4359898, “Pyrazolo-benzothiazole hybrids: Synthesis, anticancer properties and evaluation of antiangiogenic activity using in vitro VEGFR-2 kinase and in vivo transgenic zebrafish model” (Eur J Med Chem, 2019).

Each structure is given as a SMILES string.

One assay has as its system HT-29. Description: Cytotoxicity against human HT-29 cells assessed as reduction in cell viability incubated for 72 hrs by MTT assay. The note with it: HT-29, 72 h. A general note: Formazan colour is commonly taken as a measure of viable cells.
Another assay concerns U-87 MG. The assay is described as follows: Cytotoxicity against human U87MG cells assessed as reduction in cell viability incubated for 72 hrs by MTT assay.
The test system of a further assay is A549. The assay is described as follows: Cytotoxicity against human A549 cells assessed as reduction in cell viability incubated for 72 hrs by MTT assay. The note with it: A549, 72 h.
The next assay has as its system HEK-293T. Description: Cytotoxicity against HEK293T cells assessed as reduction in cell viability incubated for 72 hrs by MTT assay. The note with it: Homo sapiens.
Another assay has as its system PC-3. Description: Cytotoxicity against human PC3 cells assessed as reduction in cell viability incubated for 72 hrs by MTT assay. The note with it: PC-3, 72 h.

`O=C(Nc1nc2ccccc2s1)c1cn(-c2ccccc2)nc1-c1ccc(F)cc1`: the IC50 in the assay on HT-29 came out at 9.06 µM; with U-87 MG, 10.7 µM; in the assay on A549, 9.01 µM; in the assay on HEK-293T, 33.4 µM; with PC-3 it was 7.13 µM.
With `COc1ccc2nc(NC(=O)c3cn(-c4ccccc4)nc3-c3ccc(F)cc3)sc2c1`, the IC50 in the assay with HT-29 is 33.2 µM; in the assay with U-87 MG, greater than 50 µM; in the assay on A549, greater than 50 µM; with HEK-293T, greater than 50 µM; in the assay with PC-3, 12.8 µM.
For `COc1ccc2nc(NC(=O)c3cn(-c4ccccc4)nc3-c3ccccc3)sc2c1`, the IC50 in the assay with HT-29 was greater than 50 µM; with U-87 MG it was 40.6 µM; with A549, greater than 50 µM; in the assay on HEK-293T it was greater than 50 µM; in the assay with PC-3, 17.5 µM.
As to `COc1ccc(-c2nn(-c3ccccc3)cc2C(=O)Nc2nc3ccc(C)cc3s2)cc1`, the IC50 was 21.5 µM in the assay on HT-29; greater than 50 µM with U-87 MG; 27.7 µM with A549; greater than 50 µM in the assay on HEK-293T; 15.9 µM in the assay on PC-3.
Turning to `Cc1ccc2nc(NC(=O)c3cn(-c4ccccc4)nc3-c3ccc(Cl)cc3)sc2c1`, the IC50 in the assay with HT-29 worked out at 23.7 µM; in the assay with U-87 MG, 33.2 µM; in the assay on A549, 18.6 µM; in the assay with HEK-293T, 35.6 µM; with PC-3, 14.5 µM.
The like results for `COc1ccc(-c2nn(-c3ccccc3)cc2C(=O)Nc2nc3ccc(OC)cc3s2)cc1` were, in that order, greater than 50 µM, 5.89 µM, 18.9 µM, greater than 50 µM and 13.5 µM.
The like results for `O=C(Nc1nc2ccc(F)cc2s1)c1cn(-c2ccccc2)nc1-c1ccccc1` were, in that order, 9.8 µM, 5.57 µM, 10.2 µM, 17.6 µM and 3.25 µM.
The like results for `COc1ccc2nc(NC(=O)c3cn(-c4ccccc4)nc3-c3ccc(Cl)cc3)sc2c1` were, in that order, 18.6 µM, 21.2 µM, 31.4 µM, 29.6 µM and 29.3 µM.
With `COc1ccc(-c2nn(-c3ccccc3)cc2C(=O)Nc2nc3ccc(Cl)cc3s2)cc1`, the IC50 was found to be 6.57 µM in the assay on HT-29; 8.71 µM in the assay on U-87 MG; 4.71 µM in the assay with A549; 12.6 µM with HEK-293T; 6.51 µM in the assay with PC-3.
As for `COc1ccc(-c2nn(-c3ccccc3)cc2C(=O)Nc2nc3ccc(F)cc3s2)cc1`, the IC50 with HT-29 worked out at 5.56 µM; in the assay with U-87 MG, 8.99 µM; in the assay with A549 it was 7.56 µM; in the assay on HEK-293T, 15.4 µM; with PC-3, 4.93 µM.
Regarding `O=C(Nc1nc2ccc(F)cc2s1)c1cn(-c2ccccc2)nc1-c1ccc(Cl)cc1`, the IC50 was 4.97 µM in the assay with HT-29; 7.77 µM with U-87 MG; 8.86 µM in the assay on A549; greater than 50 µM in the assay with HEK-293T; 5.79 µM in the assay with PC-3.
Consider `O=C(Nc1nc2ccc(Cl)cc2s1)c1cn(-c2ccccc2)nc1-c1ccc(Cl)cc1`, for which the IC50 with HT-29 came to 4.55 µM; in the assay on U-87 MG, 5.87 µM; with A549, 4.36 µM; in the assay with HEK-293T, 15.7 µM; with PC-3 it was 3.23 µM.
Take `O=C(Nc1nc2ccccc2s1)c1cn(-c2ccccc2)nc1-c1ccc(Cl)cc1`: the IC50 with HT-29 came out at 13.7 µM; in the assay with U-87 MG, 11.5 µM; with A549 it was 10.3 µM; with HEK-293T it was 39.6 µM; in the assay with PC-3, 7.75 µM.
With `O=C(Nc1nc2ccccc2s1)c1cn(-c2ccccc2)nc1-c1ccccc1`, the IC50 in the assay on HT-29 was 16.8 µM; in the assay on U-87 MG, 8.96 µM; in the assay on A549, 13.5 µM; with HEK-293T it was greater than 50 µM; in the assay with PC-3, 10.4 µM.
Take `O=C(Nc1nc2ccc(Cl)cc2s1)c1cn(-c2ccccc2)nc1-c1ccccc1`: the IC50 with HT-29 stood at 7.81 µM; with U-87 MG it was 4.98 µM; in the assay on A549 it was 7.67 µM; in the assay on HEK-293T, 21.3 µM; in the assay with PC-3, 3.69 µM.
Regarding `O=C(Nc1nc2ccc(F)cc2s1)c1cn(-c2ccccc2)nc1-c1ccc(F)cc1`, the IC50 came to 4.16 µM in the assay with HT-29; 12.5 µM with U-87 MG; 6.65 µM in the assay with A549; 16.7 µM in the assay with HEK-293T; 5.26 µM in the assay on PC-3.
For `Cc1ccc2nc(NC(=O)c3cn(-c4ccccc4)nc3-c3ccc(F)cc3)sc2c1` the same measures were 22.9 µM, greater than 50 µM, 24.6 µM, greater than 50 µM and 20.5 µM.
In the case of `Cc1ccc2nc(NC(=O)c3cn(-c4ccccc4)nc3-c3ccccc3)sc2c1`, the IC50 in the assay with HT-29 is greater than 50 µM; in the assay on U-87 MG, 23.2 µM; with A549, 26.5 µM; in the assay on HEK-293T it was greater than 50 µM; in the assay with PC-3 it was 15.7 µM.
Take `COc1ccc(-c2nn(-c3ccccc3)cc2C(=O)Nc2nc3ccccc3s2)cc1`: the IC50 is 10.5 µM in the assay on HT-29; 11.5 µM with U-87 MG; 13.7 µM in the assay with A549; 18.9 µM in the assay on HEK-293T; 6.67 µM in the assay with PC-3.

What is called IC50 is the midpoint of a concentration-inhibition curve.
